The values that follow come from ChEMBL document CHEMBL1137496, “Inactivation of soybean sterol 24-C-methyltransferase by elongated sterol side chains at C26” (Bioorg Med Chem Lett, 2007).

Series [1] deals with T1, S-adenosyl-L-methionine:delta24-sterol-C-methyltransferase (Glycine max) (UniProt Q43445).
T1 sequence (whole entry): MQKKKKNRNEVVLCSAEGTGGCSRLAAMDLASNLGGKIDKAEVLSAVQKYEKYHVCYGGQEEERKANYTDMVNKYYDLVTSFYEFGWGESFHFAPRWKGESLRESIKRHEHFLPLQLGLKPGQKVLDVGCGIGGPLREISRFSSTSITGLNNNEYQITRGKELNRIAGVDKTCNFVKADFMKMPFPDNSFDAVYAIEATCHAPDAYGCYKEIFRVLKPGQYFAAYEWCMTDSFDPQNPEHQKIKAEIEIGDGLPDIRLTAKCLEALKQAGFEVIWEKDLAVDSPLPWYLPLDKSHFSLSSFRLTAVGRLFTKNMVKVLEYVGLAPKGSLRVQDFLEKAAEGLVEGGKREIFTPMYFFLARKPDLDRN
As to the kind of experiment: (§1) Inhibition of soybean recombinant SMT expressed in Escherichia coli.

The target in series [2] is T2, S-adenosyl-L-methionine:delta24-sterol-C-methyltransferase (Glycine max, UniProt Q43445).
T2 sequence (Q43445 whole entry): T1 sequence (whole entry)
The description is as §1.

Series [3] concerns the target T1, S-adenosyl-L-methionine:delta24-sterol-C-methyltransferase (Glycine max). As to the kind of experiment: Ratio of Kcat to Kinact for soybean recombinant SMT expressed in Escherichia coli.
Series [4] has the same target. As to the kind of experiment: Inhibition of soybean recombinant SMT expressed in Escherichia coli assessed as C-methylation in presence of 100 uM cycloartenol substrate. More on the design: scale not given: the % may be the effect or the level left.
For series [5] the target is unchanged. As to the kind of experiment: Inhibition of soybean recombinant SMT expressed in Escherichia coli assessed as C-methylation in presence of 50 uM cycloartenol substrate. Also on record: scale not given: the % may be the effect or the level left.
Substrate in series [6]: C#C/C(C)=C/CCC(C)[C@H]1CC[C@@]2(C)[C@@H]3CC[C@H]4C(C)(C)[C@@H](O)CCC45CC35CC[C@]12C
As to the kind of experiment: (§2) Activity of soybean recombinant SMT expressed in Escherichia coli. Conditions: Glycine max.

Substrate in series [7]: C=C/C(C)=C/CCC(C)[C@H]1CC[C@@]2(C)[C@@H]3CC[C@H]4C(C)(C)[C@@H](O)CCC45CC35CC[C@]12C
Described as §2. The note with it: Glycine max.

Turning to `CC(C)SCC[C@@H](C)[C@H]1CC[C@@]2(C)[C@@H]3CC[C@H]4C(C)(C)[C@@H](O)CCC45CC35CC[C@]12C` (stereo partly specified), the Kinact in series [1] came out at 0.3 min⁻¹. For the same molecule, the Ki in series [2] was 2 µM.

Take `C#C/C(C)=C/CCC(C)[C@H]1CC[C@@]2(C)[C@@H]3CC[C@H]4C(C)(C)[C@@H](O)CCC45CC35CC[C@]12C` (stereo partly specified): in series [1], the Kinact turned out to be 0.06 min⁻¹. The IC50 in series [2] came out at 67 µM. The Ratio in series [3] was 0.001.

Consider `C=C/C(C)=C/CCC(C)[C@H]1CC[C@@]2(C)[C@@H]3CC[C@H]4C(C)(C)[C@@H](O)CCC45CC35CC[C@]12C` (stereo partly specified), for which the Activity in series [4] was found to be 45%; in series [5], 25%. In addition, the Kinact in series [1] was determined as 0.24 min⁻¹. Also, the Ki in series [2] turned out to be 47 µM. Moreover, the Ratio in series [3] amounted to 0.001.

On to `CC(C)=CCC[C@@H](C)[C@H]1CC[C@@]2(C)[C@@H]3CC[C@H]4C(C)(C)[C@@H](O)CCC45CC35CC[C@]12C` (stereo partly specified), for which, in series [1], the Kinact was 0.29 min⁻¹. The Ki in series [2] is 42 µM.

B1: S-adenosyl-L-methionine:delta24-sterol-C-methyltransferase (Glycine max), Q43445 (protein)
chain: T1 sequence (whole entry)
Consider B1, for which the Km in series [6] is 2 µM; in series [7], 5 µM. In addition, the figures for the turnover number (kcat) in series [6] and in series [7] were 8.33e-07 s⁻¹ and 5e-06 s⁻¹, respectively.

Broadly, the Ki is a dissociation constant, usually derived from enzyme kinetics or from competition with a known ligand. As a reminder, the IC50 is the concentration that gives 50% inhibition. The Km is the concentration of substrate that gives half-maximal velocity. In general, kcat refers to the maximal rate divided by the concentration of active sites.
